Patent publication US7608617B2, “Naphthaline derivatives as H3 inverse agonists” (Hoffmann-La Roche Inc., priority 2004, dated 2009)
Counter-ions that a name gives are not always drawn.

What follows are molecules tested against T1, histamine 3 receptor (H3R) (Homo sapiens, UniProt Q9Y5N1) (assay: Binding assay with 3H-(R)α-methylhistamine (competition binding, membranes of the human HR3-CHO cell line)). Details: competition with 3H(R)α-Methylhistamine 1 nM, Ki calculated from IC50 by Cheng-Prusoff equation.
T1 construct: expressed in transfected cells; host or cells: CHO cells (HR3-CHO cell line), membranes
Description: Binding assay with ^3H—(R)α-methylhistamine
Saturation binding experiments were performed using HR3—CHO membranes prepared as described in Takahashi, K, Tokita, S., Kotani, H. (2003) J. Pharmacol. Exp. Therapeutics 307, 213-218.
An appropriate amount of membrane (60 to 80 μg protein/well) was incubated with increasing concentrations of ^3H(R)α-Methylhistamine di-hydrochloride (0.10 to 10 nM). Non specific binding was determined using a 200 fold excess of cold (R)α-Methylhistamine dihydrobromide (500 nM final concentration). The incubation was carried out at room temperature (in deep-well plates shaking for three hours). The final volume in each well was 250 μl. The incubation was followed by rapid filtration on GF/B filters (pre-soaked with 100 μl of 0.5% PEI in Tris 50 mM shaking at 200 rpm for two hours). The filtration was made using a cell-harvester and the filter plates were then washed five times with ice cold washing buffer containing 0.5 M NaCl. After harvesting, the plates were dried at 55° C. for 60 min, then we added scintillation fluid (Microscint 40, 40 microl in each well) and the amount of radioactivity on the filter was determined in Packard top-counter after shaking the plates for two hours at 200 rpm at room temperature.
Binding Buffer: 50 mM Tris-HCl pH 7.4 and 5 mM MgCl2x 6H2O pH 7.4. Washing Buffer: 50 mM Tris-HCl pH 7.4 and 5 mM MgCl2×6H2O and 0.5 M NaCl pH 7.4:
Indirect measurement of affinity of H3R inverse agonists: twelve increasing concentrations (ranging from […] to 0.3 nM) of the selected compounds were always tested in competition binding experiments using membrane of the human HR3-CHO cell line. An appropriate amount of protein, e.g. approximately 500 cpm binding of RAMH at Kd, were incubated for 1 hour at room temperature in 250 μl final volume in 96-well plates in presence of ^3H(R)α-Methylhistamine (1 nM final concentration=Kd). […]
All compounds were tested at a single concentration in duplicates. […] Ki's were calculated from IC50 based on Cheng-Prusoff equation (Cheng, Y, Prusoff, W H (1973) Biochem Pharmacol 22, 3099-3108).

T1 sequence (Q9Y5N1 whole entry): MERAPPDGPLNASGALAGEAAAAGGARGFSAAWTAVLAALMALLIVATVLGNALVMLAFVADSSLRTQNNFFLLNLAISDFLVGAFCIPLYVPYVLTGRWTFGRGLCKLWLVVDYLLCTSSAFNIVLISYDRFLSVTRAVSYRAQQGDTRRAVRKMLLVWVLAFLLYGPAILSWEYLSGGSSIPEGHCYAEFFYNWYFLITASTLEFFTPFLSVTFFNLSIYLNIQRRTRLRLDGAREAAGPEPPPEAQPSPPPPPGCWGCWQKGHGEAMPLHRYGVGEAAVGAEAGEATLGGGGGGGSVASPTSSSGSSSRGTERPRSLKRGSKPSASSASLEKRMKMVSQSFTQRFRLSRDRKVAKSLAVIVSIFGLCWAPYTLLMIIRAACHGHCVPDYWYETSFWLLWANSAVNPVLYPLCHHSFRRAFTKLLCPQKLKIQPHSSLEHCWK

| Structure (SMILES) | Ki [nM] |
| --- | --- |
| O=C(c1ccc2cc(OCCCN3CCCCC3)ccc2c1)N1CCCCC1 [Example 1, piperidin-1-yl-[6-(3-piperidin-1-yl-propoxy)-naphthalen-2-yl]-methanone 1:1 hydrochloride] | 26 |
| CC1CCCCN1CCCOc1ccc2cc(C(=O)N(C)Cc3ccccc3)ccc2c1 (stereo not drawn) [Example 13, 6-[3-(2-methyl-piperidin-1-yl)-propoxy]-naphthalene-2-carboxylic acid benzyl-methyl-amide 1:1 hydrochloride] | 111 |
| CC1CCN(C(=O)c2ccc3cc(OCCC4CCCN4C)ccc3c2)CC1 (stereo not drawn) [Example 31, (4-methyl-piperidin-1-yl)-{6-[2-(1-methyl-pyrrolidin-2-yl)-ethoxy]-naphthalen-2-yl}-methanone 1:1 hydrochloride] | 571 |
